Type in all cases: cell-based, Escherichia coli
One assay concerns E. coli EKO-35. Put plainly: microbe, parasite or virus in culture. The following applies: for Fold change of MICs: EKO-35 compared to EKO-35 (reference); for Minimum inhibitory concentration (MIC), EKO-35 / Minimum Inhibitory Concentration, EKO-35 / MIC: technical duplicate; for MIC: Escherichia coli, EKO35. The essentials:
(§1)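 Turbidity (OD600, pre-incubation subtracted) defined growth after 18 h at 37 °C in MHB II. The inoculum was diluted 1/2000 from an OD600 ~1.0 PBS suspension of an overnight LB culture. Compounds were run as duplicate twofold dilutions.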

A further assay relates to E. coli ΔtolC. Put plainly: microbe, parasite or virus in culture. The conditions noted are these: for Minimum inhibitory concentration (MIC), ΔtolC: Table 10, without pore; for Minimum inhibitory concentration (MIC), ΔtolC / Minimum Inhibitory Concentration, ΔtolC: technical duplicate; for Minimum Inhibitory Concentration, ΔtolC: Table 13A, non-porinated. The essentials:
as §1

For assay [1], the system named is wild-type E. coli K-12 str. BW25113. Put plainly: microbe, parasite or virus in culture. The following applies: technical duplicate; for MIC: Escherichia coli, BW25113. The essentials: as §1
The subject of a further assay is EKO-35 araC::acrB. Nature of the assay: MIC susceptibility profiling, efflux platform. The following applies: for Fold change of MICs: EKO-35 araC::acrB compared to EKO-35. The method, boiled down: as §1
Another assay deals with EKO-35 araC::acrD. Nature of the assay: MIC susceptibility profiling, efflux platform. The conditions noted are these: for Fold change of MICs: EKO-35 araC::acrD compared to EKO-35. The essentials: as §1
Another assay deals with EKO-35 araC::mdtBC. Put plainly: MIC susceptibility profiling, efflux platform. The conditions noted are these: for Fold change of MICs: EKO-35 araC::mdtBC compared to EKO-35. The essentials: as §1
Assay [2] concerns EKO-35 araC::mexCD (MexCD from P. aeruginosa). Nature of the assay: MIC susceptibility profiling, efflux platform. The following applies: for Fold change of MICs: EKO-35 araC::mexCD compared to EKO-35. The essentials: as §1
Another assay concerns EKO-35-Pore. Nature of the assay: MIC susceptibility profiling, porinated strain. The following applies: for Fold changes of MICs: EKO-35-Pore compared to EKO-35-Pore (reference); for Minimum inhibitory concentration (MIC), Pore EKO-35 / Minimum inhibitory concentration, EKO-35-Pore / MIC: technical duplicate; for MIC: Escherichia coli. The essentials:
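E. coli strains carrying a genomically integrated constitutive fhuA ΔC/Δ4L pore were grown 18 h in LB at 37 °C, then diluted 1/2000 in MHB II from OD600 ~1.0. Compounds were tested in duplicate, 2-fold serial titration, for 18 h at 37 °C with shaking. MIC came from OD600 with the pre-incubation background subtracted.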

The mark [3] stands for this setting: Table 13A, non-porinated, technical duplicate.
Where [4] appears, read: Table 13B, non-porinated, technical duplicate.

Results on four compounds are retold here after patent publication US20230407243A1, “GENETIC PLATFORM TO INVESTIGATE THE FUNCTIONS OF BACTERIAL DRUG EFFLUX PUMPS” (priority 2022, published 2023).

Where two headings read alike, the source gives them in different places.

Consider `N#CC(C#N)=NNc1cccc(Cl)c1` [CCCP], for which the “Fold change of MICs” value (in the assay with E. coli EKO-35; in the assay on EKO-35 araC::acrB; with EKO-35 araC::acrD; in the assay with EKO-35 araC::mdtBC; in assay [2]) was 1 fold each time. Moreover, the “Minimum inhibitory concentration (MIC), EKO-35” value in the assay on E. coli EKO-35 (Table 10, without pore) came to 12.5 µg/mL. In addition, the “Minimum Inhibitory Concentration, EKO-35” value with E. coli EKO-35 (Table 13A, non-porinated) amounted to 12.5 µg/mL. Also, the “Minimum inhibitory concentration (MIC), ΔtolC” value in the assay on E. coli ΔtolC is 0.781 µg/mL. Also, the “Minimum Inhibitory Concentration, ΔtolC” value in the assay on E. coli ΔtolC stood at 0.781 µg/mL. The “Minimum inhibitory concentration (MIC), K-12” value in assay [1] (Table 10, without pore) worked out at 25 µg/mL. Besides, the “Minimum Inhibitory Concentration, K-12” value in assay [1] (Table 13A, non-porinated) came out at 25 µg/mL. Moreover, in the assay with EKO-35 araC::acrB (setting [3]), the “Minimum Inhibitory Concentration, EKO-35 araC::acrB” value came to 12.5 µg/mL. The “Minimum Inhibitory Concentration, EKO-35 araC::acrD” value with EKO-35 araC::acrD (setting [3]) was 6.25 µg/mL. For the same compound, the “Minimum Inhibitory Concentration, EKO-35 araC::mdtBC” value in the assay on EKO-35 araC::mdtBC (setting [4]) worked out at 12.5 µg/mL. The “Minimum Inhibitory Concentration, EKO-35 araC::mexCD” value in assay [2] (setting [4]) worked out at 12.5 µg/mL. For the same compound, the “Fold changes of MICs” value with EKO-35-Pore is recorded as 1 fold. Moreover, in the assay with EKO-35-Pore (Table 10, with pore), the “Minimum inhibitory concentration (MIC), Pore EKO-35” value amounted to 6.25 µg/mL. Also, the “Minimum inhibitory concentration, EKO-35-Pore” value in the assay on EKO-35-Pore (Table 14A, porinated) was determined as 6.25 µg/mL.

With `CC(C)c1ccc(C=C(C#N)c2nc3ccccc3[nH]2)cc1` [compound 12], the “Fold change of MICs” value (with E. coli EKO-35; in the assay with EKO-35 araC::acrB; in the assay on EKO-35 araC::acrD; with EKO-35 araC::mdtBC; in assay [2]) was 1 fold in each case. Besides, in the assay with E. coli EKO-35 (Table 10, without pore), the “Minimum inhibitory concentration (MIC), EKO-35” value was 320 µg/mL. In addition, in the assay with E. coli EKO-35 (Table 13A, non-porinated), the “Minimum Inhibitory Concentration, EKO-35” value was 320 µg/mL. Moreover, in the assay with E. coli ΔtolC, the “Minimum inhibitory concentration (MIC), ΔtolC” value worked out at 1.25 µg/mL. For the same compound, the “Minimum Inhibitory Concentration, ΔtolC” value in the assay on E. coli ΔtolC turned out to be 1.25 µg/mL. In assay [1] (Table 10, without pore), the “Minimum inhibitory concentration (MIC), K-12” value amounted to 320 µg/mL. In addition, the “Minimum Inhibitory Concentration, K-12” value in assay [1] (Table 13A, non-porinated) stood at 320 µg/mL. In addition, the “Minimum Inhibitory Concentration, EKO-35 araC::acrB” value in the assay with EKO-35 araC::acrB (setting [3]) came out at 320 µg/mL. Further, the “Minimum Inhibitory Concentration, EKO-35 araC::acrD” value in the assay with EKO-35 araC::acrD (setting [3]) was determined as 320 µg/mL. For the same compound, the “Minimum Inhibitory Concentration, EKO-35 araC::mdtBC” value in the assay with EKO-35 araC::mdtBC (setting [4]) turned out to be 320 µg/mL. Besides, the “Minimum Inhibitory Concentration, EKO-35 araC::mexCD” value in assay [2] (setting [4]) was 320 µg/mL. Also, the “Fold changes of MICs” value in the assay on EKO-35-Pore is 1 fold. For the same compound, the “Minimum inhibitory concentration (MIC), Pore EKO-35” value with EKO-35-Pore (Table 10, with pore) was determined as 160 µg/mL. The “Minimum inhibitory concentration, EKO-35-Pore” value in the assay with EKO-35-Pore (Table 14A, porinated) came out at 160 µg/mL.

Turning to `N#CC(=NNc1ccc(F)c(Cl)c1)C(=O)c1ccc(Cl)cc1` [compound 15], the “Fold change of MICs” value (with E. coli EKO-35; in the assay with EKO-35 araC::acrB; with EKO-35 araC::acrD; in the assay on EKO-35 araC::mdtBC; in assay [2]) was 1 fold in each case. In the assay with E. coli EKO-35 (Table 10, without pore), the “Minimum inhibitory concentration (MIC), EKO-35” value was 320 µg/mL. In the assay with E. coli EKO-35 (Table 13A, non-porinated), the “Minimum Inhibitory Concentration, EKO-35” value worked out at 320 µg/mL. For the same compound, the “Minimum inhibitory concentration (MIC), ΔtolC” value in the assay on E. coli ΔtolC turned out to be 1.25 µg/mL. In addition, the “Minimum Inhibitory Concentration, ΔtolC” value in the assay with E. coli ΔtolC was determined as 1.25 µg/mL. The “Minimum inhibitory concentration (MIC), K-12” value in assay [1] (Table 10, without pore) stood at 320 µg/mL. Further, the “Minimum Inhibitory Concentration, K-12” value in assay [1] (Table 13A, non-porinated) came out at 320 µg/mL. In addition, the “Minimum Inhibitory Concentration, EKO-35 araC::acrB” value in the assay on EKO-35 araC::acrB (setting [3]) came to 320 µg/mL. Besides, the “Minimum Inhibitory Concentration, EKO-35 araC::acrD” value in the assay with EKO-35 araC::acrD (setting [3]) was 320 µg/mL. In addition, in the assay with EKO-35 araC::mdtBC (setting [4]), the “Minimum Inhibitory Concentration, EKO-35 araC::mdtBC” value was 320 µg/mL. In addition, the “Minimum Inhibitory Concentration, EKO-35 araC::mexCD” value in assay [2] (setting [4]) was 320 µg/mL. Also, the “Fold changes of MICs” value with EKO-35-Pore is 1 fold. Moreover, in the assay with EKO-35-Pore (Table 10, with pore), the “Minimum inhibitory concentration (MIC), Pore EKO-35” value stood at 320 µg/mL. Also, in the assay with EKO-35-Pore (Table 14A, porinated), the “Minimum inhibitory concentration, EKO-35-Pore” value was found to be 320 µg/mL.

For the compound `C[C@@H]1O[C@@H]1P(=O)(O)O` [fosfomycin], the “Fold change of MICs” value (with E. coli EKO-35; in the assay with EKO-35 araC::acrB; in the assay with EKO-35 araC::acrD; with EKO-35 araC::mdtBC; in assay [2]) was 1 fold in each case. In addition, the MIC with E. coli EKO-35 (Table 10, without pore, read-out: Minimum inhibitory concentration (MIC), EKO-35) was 3.12 µg/mL; with E. coli EKO-35 (Table 13A, non-porinated, read-out: Minimum Inhibitory Concentration, EKO-35), 3.12 µg/mL; in the assay with E. coli ΔtolC (Escherichia coli, 18 h, read-out: Minimum Inhibitory Concentration, ΔtolC), 6.25 µg/mL; in assay [1] (Table 10, without pore, read-out: Minimum inhibitory concentration (MIC), K-12), 6.25 µg/mL; in assay [1] (Table 13A, non-porinated, read-out: Minimum Inhibitory Concentration, K-12), 6.25 µg/mL; in the assay with EKO-35 araC::acrB (Escherichia coli, Table 13A, non-porinated, technical duplicate, read-out: Minimum Inhibitory Concentration, EKO-35 araC::acrB) it was 1.56 µg/mL. Also, the MIC was determined as 1.56 µg/mL in the assay on EKO-35 araC::acrD (Escherichia coli, Table 13A, non-porinated, technical duplicate, read-out: Minimum Inhibitory Concentration, EKO-35 araC::acrD); 1.56 µg/mL in the assay with EKO-35 araC::mdtBC (Escherichia coli, Table 13B, non-porinated, technical duplicate, read-out: Minimum Inhibitory Concentration, EKO-35 araC::mdtBC); 1.56 µg/mL in assay [2] (Table 13B, non-porinated, technical duplicate, read-out: Minimum Inhibitory Concentration, EKO-35 araC::mexCD); 0.781 µg/mL with EKO-35-Pore (Table 10, with pore, read-out: Minimum inhibitory concentration (MIC), Pore EKO-35); 0.781 µg/mL in the assay on EKO-35-Pore (Table 14A, porinated, read-out: Minimum inhibitory concentration, EKO-35-Pore). Also, the “Minimum inhibitory concentration (MIC), ΔtolC” value in the assay with E. coli ΔtolC was 6.25 µg/mL. In the assay on EKO-35-Pore, the “Fold changes of MICs” value was determined as 1 fold.
